Results reported in patent US5214067A, “Fungicidal compositions and method” (Merck & Co., Inc., priority 1990, dated 1993).
Converted amounts (≈) assume the structure as drawn.

What was measured:
[1] = test system: Candida albicans MY 1055; assay: Minimum inhibitory concentration (broth dilution) against Candida albicans MY 1055; type: cell-based; settings: MY1055, C. albicans MY 1055, YNB/G, 37° C., 250 rpm, 17 hr
Description: 11-(3-hydroxymethyl-4-oxo-2oxetanyl)-7-methyl-2,4-undecadienoic acid (β-lactone compound), was solubilized in 100 percent dimethylsulfoxide (DMSO). Twofold dilutions were made with DMSO to obtain final drug concentrations in the broth dilution assay tubes ranging from […].
The Candida albicans, MY 1055 yeast culture, maintained in yeast nitrogen base/glucose (1/2 percent), YNB/G, was transferred to fresh medium and incubated 7 hours at 37° with shaking at 250 rpm. After incubation, each culture was diluted to A600 =0.0004 U/ml which was previously determined to be equal to 3000 cfu/ml (colony forming units per milliliter).
1 milliliter of YNB/G inoculated with yeast culture was added to sterile test tubes. The tubes were incubated at 250 rpm, 37° C. for 17 hr. The minimum inhibitory concentration (MIC) was recorded as the lowest concentration of drug […].
In a similar manner, the pyranyl ester was solubilized in dimethyl sulfoxide and dilution assay tubes from […] prepared. […] The MIC against C. C. albicans MY 1055 was determined to be 2 μg/ml.

[2] = test system: C. albicans; assay: Synergistic and fungicidal effect: viable cell count (CFU/ml) of exponential phase C. albicans culture over time, drugs alone and in combination; type: cell-based, Candida albicans; settings: β-lactone 3.1 μg/ml, pyranyl glycine ester 2 μg/ml, alone or together
Description: Synergistic and fungicidal effects were determined by treating exponential phase C. albicans culture with β-Lactone and pyranyl glycine ester at respective MIC level alone and in combination. Exponential phase cultures were prepared by diluting an overnight culture 1:50 or 1:1000 YNB/G. After incubating the diluted cells 7 or 17 hrs. at 37° C., the exponential phase cells were diluted in YNB/G to A600 =0.004u/ml to obtain 3000 cfu/ml.
10 microliters (μl) of β-lactone compound or pyranyl glycine ester compound prepared in DMSO was added to 1 ml of diluted exponential phase cells. The tubes were incubated at 37° C. at 250 rpm for about 24 hours. Periodically, aliquots were diluted in 0.9% saline and plated on Sabouraud dextrose agar plates to determine the number of cfu/ml.

[3] = time 2 hours, no drug 4.45 × 10^3
[4] = time 4.5 hours, no drug 1.75 × 10^4
[5] = time 7.5 hours, no drug 1.10 × 10^5
[6] = time 16.0 hours, no drug 5.35 × 10^6
[7] = time 20.5 hours, no drug 5.30 × 10^7
[8] = time 24.0 hours, no drug 7.65 × 10^7

| MIC [1] [µg/mL] | Structure (SMILES) | Fungal Growth (CFU/ML) ([2]; time 0 hours (start), 37° C.) | Fungal Growth (CFU/ML) [2, 3] | Fungal Growth (CFU/ML) [2, 4] | Fungal Growth (CFU/ML) [2, 5] | Fungal Growth (CFU/ML) [2, 6] | Fungal Growth (CFU/ML) [2, 7] | Fungal Growth (CFU/ML) [2, 8] |
| --- | --- | --- | --- | --- | --- | --- | --- | --- |
| 3.1 (≈ 9.56 µM) | CC(=CC(=O)O)C=C(C)CC(C)CCCCC1OC(=O)C1CO (stereo not drawn) [β-Lactone Compound] | 2.70 × 10^3 CFU/ML | 5.95 × 10^3 CFU/ML | 4.10 × 10^3 CFU/ML | 4.55 × 10^3 CFU/ML | 1.70 × 10^3 CFU/ML | 1.50 × 10^3 CFU/ML | 1.50 × 10^3 CFU/ML |
| 2 (≈ 5.93 µM) | CCCC=CC=CC=C(C)C1OCC(C)C(OC)C1OC(=O)CN (stereo not shown) [Pyranyl Glycine Ester Compound, (2,3,4,5)-tetrahydro-4-methoxy-5-methyl-2-(1-methyl-1,3,5-nonatrienyl)-2-pyran-3-yl-glycine] | 2.70 × 10^3 CFU/ML | 6.05 × 10^3 CFU/ML | 9.60 × 10^3 CFU/ML | 1.40 × 10^4 CFU/ML | 1.00 × 10^5 CFU/ML | 1.02 × 10^6 CFU/ML | 1.37 × 10^6 CFU/ML |
